Laboratory results taken from patent US20230365571A1, “COMPOUNDS AND COMPOSITIONS AS Sppl2a INHIBITORS” (Novartis AG, priority 2020, published 2023).

Assays:
human SPPL2a [1] = target: T1, human SPPL2a (Homo sapiens, UniProt Q8TCT8); test: Sppl2a RGA (reporter gene assay) in HEK293 cells; assay type: cell-based; design: expressed in transfected cells; host or cells: HEK293 (transient); conditions: NT-TNF-VP16-Gal4 substrate, Gal4-luciferase reporter, 24 h
T1 sequence (Q8TCT8 26-520): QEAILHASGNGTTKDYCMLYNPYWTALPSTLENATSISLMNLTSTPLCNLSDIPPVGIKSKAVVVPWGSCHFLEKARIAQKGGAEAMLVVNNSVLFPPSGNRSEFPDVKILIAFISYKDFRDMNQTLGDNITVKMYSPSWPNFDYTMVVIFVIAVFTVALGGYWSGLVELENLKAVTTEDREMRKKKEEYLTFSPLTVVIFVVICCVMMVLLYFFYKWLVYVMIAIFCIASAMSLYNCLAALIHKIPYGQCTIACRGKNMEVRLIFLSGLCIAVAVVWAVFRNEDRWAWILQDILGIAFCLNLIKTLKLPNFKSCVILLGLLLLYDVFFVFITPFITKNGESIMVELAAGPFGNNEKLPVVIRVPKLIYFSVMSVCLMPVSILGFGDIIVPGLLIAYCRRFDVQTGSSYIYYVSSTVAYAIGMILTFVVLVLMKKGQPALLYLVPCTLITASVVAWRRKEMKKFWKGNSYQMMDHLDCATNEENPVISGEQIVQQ
From the text: Sppl2a RGA (Reporter Gene Assay):
Sppl2a is an intramembrane aspartyl protease with similarities to presenilin, the active subunit of the γ-secretase complex. The assay is based on the coupling of the proteolytic degradation of a membrane bound synthetic substrate (VP16-Gal4 fusion protein with the N-terminal domain of TNF alpha), which migrates to the nucleus upon cleavage, with the Gal4 driven expression of luciferase. Inhibition of Sppl2a results in a reduction of nuclear VP16-Gal4 activator and therefore in a reduction of the production of luciferase. The luciferase dependent-luminescence is plotted against the concentrations of compound to generate a dose response curve, which allows the calculation of the IC50 value.
DNA vectors encoding human Sppl2a, NT-TNF-VP16-Gal4 and a Gal4-luciferase reporter were transiently transfected in HEK293 cells. In a typical experiment 5 μg plasmid for SPPL2a, 10 μg plasmid encoding the reporter Gal4-luciferase and 20 μg plasmid encoding the substrate NT-TF-VP16-Gal4 were mixed together. The DNA mixture was combined with 107 μl FuGENE® (Promega), 735 μl Opti-MEM® (Life Technologies) and incubated for 5 minutes at RT. To this mixture 20 mL of concentrated HEK293 cells were added and thoroughly mixed. The cell suspension was distributed to a white solid 384 well plate. Within 5 hours, 50 nl of compound in DMSO was stamped into the wells via pintool. The plate was incubated for 24 h at 37° C., 5% CO2 in a humidified incubator, before the addition of 25 μl Bright Glo. After incubation at RT for 5 min, the plate was transferred to a luminometer and the luminescence was measured. The IC50 was determined by plotting compound concentration vs. normalized luminescence values.

human SPPL2a [2] = target: T1, human SPPL2a; test: Sppl2a TL (translocation) imaging assay in U-2 OS cells; assay type: cell-based; design: expressed in transfected cells; conditions: U-2 OS cells expressing human SPPL2a and EGFP-TNFα(aa1-76) NTF substrate; 24 h
Experimental: SPPL2a, TL in U-2 OS Cells. Stable U-2 OS cell lines expressing human SPPL2a constitutively and a EGFP-labeled TNFα(aa1-76) NTF substrate under a doxycycline-regulated promoter were used for the imaging assays. Cells were seeded at 3000 cells/30 μL/384-well in DMEM/GlutaMax™-I (Invitrogen) supplemented with tetracycline-free 10% FBS (Amimed) and incubated at 37° C., 5% CO2 for 3-4 h. Subsequently, 3.3 μL of inhibitors, prediluted in doxycycline-containing medium for 11-point concentration-response curves, were added to each well using a CyBi well liquid handling device (Cybio AG, Jena, Germany) to result in final inhibitor concentrations ranging from 100 μM to 1 nM (final DMSO concentration 0.9% (v/v)) and 5 μg/mL doxycycline). The cells were incubated with inhibitor at 37° C., 5% CO2 for 24 h. Thereafter cell were fixed in 4% PFA/PBS and in parallel, nuclei were stained with Hoechst (Invitrogen) 1:5000 in PBS for 30 min. The plates were imaged using a Cellomics ArrayScan VTI HCS reader with 10×/0.3NA objective (Thermo Fisher Scientific, USA). Six images per well were acquired. Images for the EGFP signal (Ex395, Em509) and the Hoechst nuclear dye (Ex350, Em425) were acquired simultaneously with image analysis using the “Nuclear Translocation” assay algorithm of the Cellomics ArrayScan software. Nuclei were detected based on the Hoechst staining, the nuclear mask was transferred to the EGFP channel, and a 4 pixel wide cytoplasm ring region was defined around the nucleus. The intensity of the EGFP signal was measured both in the nuclear and in the cytoplasm ring region of each individual cell (in general 800-1000 individual cells were analyzed per well), and the difference of the average nuclear versus average cytoplasmic intensity of the EGFP signal was calculated (“CircRingAvgIntenDiffCh2”=“CircAvgIntenCh2”−“RingAvgIntenCh2”). Additionally the number of cells were acquired (feature termed “ValidCellCount”) and used to calculate cell toxicity (CC50). Percent inhibition was calculated relative to the positive (0.5 μM LY-411,575=100% inhibition) and negative (DMSO=0% inhibition) controls. The IC50 value was calculated from the plot of percentage of inhibition vs inhibitor concentration using nonlinear regression analysis software, e.g., Origin (OriginLab Corp.).

Row | IC50 (human SPPL2a [1]) [nM] | IC50 (human SPPL2a [2]) [nM] | Compound
1 | 5 | 2 | CC(C)NC(=O)c1cc(NC(=O)C[C@H](C(=O)N[C@@H]2C(=O)N3CCCN3Cc3ccccc32)C2CC2)n(C)n1 [Example 67, (S)-2-Cyclopropyl-N^4-(3-(isopropylcarba-moyl)-1-methyl-1H-pyrazol-5-yl)-N^1-((S)-11-oxo-2,3,10,11-tetrahydro-1H,5H-benzo[d]pyrazolo [1,2-a][1,2]diazepin-10-yl)succinamide]
2 | 13 | 4 | C[C@H](CC(=O)Nc1cc(NC(=O)C(F)(F)C(F)(F)F)nn1C)C(=O)N[C@@H]1C(=O)N2CCCN2Cc2ccccc21 [Example 70, (R)-2-Methyl-N^4-(1-methyl-3-(2,2,3,3,3-pentafluoropro-panamido)-1H-pyrazol-5-yl)-N^1-((S)-11-oxo-2,3,10,11-tetrahydro-1H,5H-benzo[d]pyrazolo [1,2-a][1,2]diazepin-10-yl)succinamide]
3 | 9 | 4 | C[C@H](CC(=O)Nc1cc(-c2ccc(C(F)(F)F)nc2)nn1C)C(=O)N[C@@H]1C(=O)N2CCCN2Cc2ccccc21 [Example 72, (R)-2-Methyl-N^4-(1-methyl-3-(6-(trifluoromethyl)pyridin-3-yl)-1H-pyrazol-5-yl)-N^1-((S)-11-oxo-2,3,10,11-tetrahydro-1H,5H-benzo[d]pyrazolo [1,2-a][1,2]diazepin-10-yl)succinamide]
4 | 43 | 6 | C[C@@H](CF)NC(=O)c1cc(NC(=O)C[C@H](C(=O)N[C@@H]2C(=O)N3CCCN3Cc3ccccc32)C2CC2)n(C)n1 [Example 78, (S)-2-Cyclopropyl-N^4-(3-(((S)-1-fluoropropan-2-yl)carbamoyl)-1-methyl-1H-pyrazol-5-yl)-N^1-((S)-11-oxo-2,3,10,11-tetrahydro-1H,5H-benzo[d]pyrazolo [1,2-a][1,2]diazepin-10-yl)succinamide]
5 | 6 | 9 | CCn1nc(-c2ccc(C(F)(F)F)nc2)cc1NC(=O)C[C@@H](C)C(=O)N[C@@H]1C(=O)N2CCCN2Cc2ccccc21 [Example 83, (R)-N^4-(1-Ethyl-3-(6-(trifluoromethyl)pyridin-3-yl)-1H-pyrazol-5-yl)-2-methyl-N^1-((S)-11-oxo-2,3,10,11-tetrahydro-1H,5H-benzo[d]pyrazolo [1,2-a][1,2]diazepin-10-yl)succinamide]
6 | 40 | 9 | C[C@H](CC(=O)Nc1cc(C(=O)NCCC(F)(F)F)nn1C)C(=O)N[C@@H]1C(=O)N2CCCN2Cc2ccccc21 [Example 84, (R)-2-Methyl-N^4-(1-methyl-3-((3,3,3-trifluoropropyl)carbamoyl)-1H-pyrazol-5-yl)-N^1-((S)-11-oxo-2,3,10,11-tetrahydro-1H,5H-benzo[d]pyrazolo [1,2-a][1,2]diazepin-10-yl)succinamide]

Second part, the compound before the results:

Row | Compound | IC50 (human SPPL2a [1]) [nM] | IC50 (human SPPL2a [2]) [nM]
7 | C[C@H](CC(=O)Nc1cc(-c2cc(C3CC3)no2)nn1C)C(=O)N[C@@H]1C(=O)N2CCCN2Cc2ccccc21 [Example 71, (R)-N^4-(3-(3-Cyclopropylisoxa-zol-5-yl)-1-methyl-1H-pyrazol-5-yl)-2-methyl-N^1-((S)-11-oxo-2,3,10,11-tetrahydro-1H,5H-benzo[d]pyrazolo [1,2-a][1,2]diazepin-10-yl)succinamide] | 4 | 4
8 | C[C@H](CC(=O)Nc1sc(-c2ccn(C)n2)nc1Cl)C(=O)N[C@@H]1C(=O)N2CCCN2Cc2ccccc21 [Example 73, (R)-N^4-(4-Chloro-2-(1-methyl-1H-pyrazol-3-yl)thiazol-5-yl)-2-methyl-N^1-((S)-11-oxo-2,3,10,11-tetrahydro-1H,5H-benzo[d]pyrazolo [1,2-a][1,2]diazepin-10-yl)succinamide] | 25 | 4
9 | Cc1cncc(-c2cc(NC(=O)C[C@@H](C)C(=O)N[C@@H]3C(=O)N4CCCN4Cc4ccccc43)n(C)n2)c1 [Example 74, (R)-2-Methyl-N^4-(1-methyl-3-(5-methylpyridin-3-yl)-1H-pyrazol-5-yl)-N^1-((S)-11-oxo-2,3,10,11-tetrahydro-1H,5H-benzo[d]pyrazolo [1,2-a][1,2]diazepin-10-yl)succinamide] | 13 | 4
10 | Cc1cncc(-c2cc(NC(=O)C[C@H](C(=O)N[C@@H]3C(=O)N4CCCN4Cc4ccccc43)C3CC3)n(C)n2)c1 [Example 75, (S)-2 Cyclopropyl-N^4-(1-methyl-3-(5-methylpyridin-3-yl)-1H-pyrazol-5-yl)-N^1-((S)-11-oxo-2,3,10,11-tetrahydro-1H,5H-benzo[d]pyrazolo [1,2-a][1,2]diazepin-10-yl)succinamide] | 4 | 5
11 | Cc1nc(-c2cncc(F)c2)sc1NC(=O)C[C@@H](C)C(=O)N[C@@H]1C(=O)N2CCCN2Cc2ccccc21 [Example 79, (R)-N^4-(2-(5-fluoropyridin-3-yl)-4-methylthiazol-5-yl)-2-methyl-N^1-((S)-11-oxo-2,3,10,11-tetrahydro-1H,5H-benzo[d]pyrazolo [1,2-a][1,2]diazepin-10-yl)succinamide] | 10 | 7
12 | CCc1cc(-c2cc(NC(=O)C[C@@H](C)C(=O)N[C@@H]3C(=O)N4CCCN4Cc4ccccc43)n(C)n2)no1 [Example 81, (R)-N^4-(3-(5-Ethylisoxazol-3-yl)-1-methyl-1H-pyrazol-5-yl)-2-methyl-N^1-((S)-11-oxo-2,3,10,11-tetrahydro-1H,5H-benzo[d]pyrazolo [1,2-a][1,2]diazepin-10-yl)succinamide] | 5 | 8
13 | CCc1cc(-c2cc(NC(=O)C[C@@H](C)C(=O)N[C@@H]3C(=O)N4CCCN4Cc4ccccc43)n(C)n2)on1 [Example 86, (R)-NA-(3-(3-Ethylisoxazol-5-yl)-1-methyl-1H-pyrazol-5-yl)-2-methyl-N^1-((S)-11-oxo-2,3,10,11-tetrahydro-1H,5H-benzo[d]pyrazolo [1,2-a][1,2]diazepin-10-yl)succinamide] | 4 | 10
14 | C[C@H](CC(=O)Nc1cc(-c2ccc(F)cn2)nn1C)C(=O)N[C@@H]1C(=O)N2CCCN2Cc2ccccc21 [Example 87, (R)-N^4-(3-(5-Fluoropyridin-2-yl)-1-methyl-1H-pyrazol-5-yl)-2-methyl-N^1-((S)-11-oxo-2,3,10,11-tetrahydro-1H,5H-benzo[d]pyrazolo [1,2-a][1,2]diazepin-10-yl)succinamide] | 10 | 10
